Laboratory results published in ChEMBL document CHEMBL1201862, “PubChem BioAssay data set” (2004).
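Dose response: 5 concentrations. Exposure: 48 h. Format: 96-well plates. Endpoint: linear interpolation; highest concentration if not reached. Here, GI50 denotes the concentration required for 50% inhibition of growth.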 The source made the active and inactive calls. Rule as the data show it: active = GI50 up to about 1.1 µM and inactive = higher.

Columns and labels:
Assay in all cases: NCI anticancer screen, dose series, 48 h
A549 = tested on: A549
OVCAR-5 = tested on: OVCAR-5
TK-10 = tested on: TK-10
SNB-19 = tested on: SNB-19
MDA-MB-435 = tested on: MDA-MB-435
EKVX = tested on: EKVX
ACHN = tested on: ACHN
OVCAR-3 = tested on: OVCAR-3
BT-549 = tested on: BT-549
SN12C = tested on: SN12C
KM12 = tested on: KM12
SK-MEL-28 = tested on: SK-MEL-28
SF-268 = tested on: SF-268
SNB-75 = tested on: SNB-75
HL-60 = tested on: HL-60
UACC-62 = tested on: UACC-62
A498 = tested on: A498
T47D = tested on: T47D
RPMI-8226 = tested on: RPMI-8226
OVCAR-4 = tested on: OVCAR-4
HOP-92 = tested on: HOP-92
HCC 2998 = tested on: HCC 2998
IGROV-1 = tested on: IGROV-1
Malme-3M = tested on: Malme-3M
HT-29 = tested on: HT-29
HOP-62 = tested on: HOP-62
CCRF-CEM = tested on: CCRF-CEM
SW-620 = tested on: SW-620
NCI/ADR-RES = tested on: NCI/ADR-RES
CAKI-1 = tested on: CAKI-1
NCI-H522 = tested on: NCI-H522
SR = tested on: SR
PC-3 = tested on: PC-3
MCF7 = tested on: MCF7
OVCAR-8 = tested on: OVCAR-8
NCI-H23 = tested on: NCI-H23
SK-MEL-2 = tested on: SK-MEL-2
M14 = tested on: M14
LOX IMVI = tested on: LOX IMVI
MDA-N = tested on: MDA-N
Hs-578T = tested on: Hs-578T
HCT-116 = tested on: HCT-116
MOLT-4 = tested on: MOLT-4
RXF 393 = tested on: RXF 393
COLO 205 = tested on: COLO 205
SF-295 = tested on: SF-295
SK-MEL-5 = tested on: SK-MEL-5
786-0 = tested on: 786-0
K562 = tested on: K562
SF-539 = tested on: SF-539
UO-31 = tested on: UO-31
DU-145 = tested on: DU-145
MDA-MB-231 = tested on: MDA-MB-231
UACC-257 = tested on: UACC-257
HCT-15 = tested on: HCT-15
U-251 = tested on: U-251
NCI-H226 = tested on: NCI-H226
SK-OV-3 = tested on: SK-OV-3

How did the GI50 (A549) turn out when CN(C)Cc1cc(C(=O)/C=C/c2ccc(/C=C/C(=O)c3cc(CN(C)C)c(O)c(CN(C)C)c3)cc2)cc(CN(C)C)c1O was run?
Its GI50 is 43 µM (inactive).

What about the GI50 (OVCAR-5) of the same compound?
Its GI50 is 17.4 µM (inactive).

What about the GI50 (TK-10) of the same compound?
Its GI50 is 36.8 µM (inactive).

What about the GI50 (SNB-19) of the same compound?
The GI50 was > 100 µM (inactive).

What about the GI50 (MDA-MB-435) of the same compound?
Its GI50 is 24 µM (inactive).

And the GI50 (EKVX)?
The GI50 was 39.2 µM (inactive).

And the GI50 (ACHN)?
Its GI50 is 23.4 µM (inactive).

What about the GI50 (OVCAR-3) of the same compound?
The GI50 was 32.1 µM (inactive).

And the GI50 (BT-549)?
Its GI50 is 18.6 µM (inactive).

What about the GI50 (SN12C) of the same compound?
Its GI50 is 28.9 µM (inactive).

And the GI50 (KM12)?
Its GI50 is 17.7 µM (inactive).

What about the GI50 (SK-MEL-28) of the same compound?
The GI50 was 29 µM (inactive).

And the GI50 (SF-268)?
The GI50 was 27.5 µM (inactive).

And the GI50 (SNB-75)?
Its GI50 is > 100 µM (inactive).

What about the GI50 (HL-60) of the same compound?
The GI50 was 14.1 µM (inactive).

And the GI50 (UACC-62)?
The GI50 was 25.9 µM (inactive).

What about the GI50 (A498) of the same compound?
The GI50 was 57.9 µM (inactive).

And the GI50 (T47D)?
Its GI50 is > 100 µM (inactive).

What about the GI50 (RPMI-8226) of the same compound?
The GI50 was 23.4 µM (inactive).

What about the GI50 (OVCAR-4) of the same compound?
The GI50 was 50.6 µM (inactive).

And the GI50 (HOP-92)?
Its GI50 is 24.2 µM (inactive).

What about the GI50 (HCC 2998) of the same compound?
Its GI50 is 16.9 µM (inactive).

What about the GI50 (IGROV-1) of the same compound?
Its GI50 is 35.2 µM (inactive).

And the GI50 (Malme-3M)?
The GI50 was 34.6 µM (inactive).

And the GI50 (HT-29)?
The GI50 was 13.5 µM (inactive).

What about the GI50 (HOP-62) of the same compound?
Its GI50 is 26.8 µM (inactive).

What about the GI50 (CCRF-CEM) of the same compound?
Its GI50 is 9.57 µM (inactive).

What about the GI50 (SW-620) of the same compound?
The GI50 was 20.8 µM (inactive).

What about the GI50 (NCI/ADR-RES) of the same compound?
Its GI50 is > 100 µM (inactive).

And the GI50 (CAKI-1)?
Its GI50 is 39 µM (inactive).

What about the GI50 (NCI-H522) of the same compound?
Its GI50 is 10.5 µM (inactive).

What about the GI50 (SR) of the same compound?
The GI50 was 22.8 µM (inactive).

And the GI50 (PC-3)?
Its GI50 is 15.1 µM (inactive).

What about the GI50 (MCF7) of the same compound?
The GI50 was 9.42 µM (inactive).

What about the GI50 (OVCAR-8) of the same compound?
Its GI50 is 49.3 µM (inactive).

What about the GI50 (NCI-H23) of the same compound?
Its GI50 is 18.7 µM (inactive).

And the GI50 (SK-MEL-2)?
The GI50 was 20.2 µM (inactive).

And the GI50 (M14)?
The GI50 was 17 µM (inactive).

And the GI50 (LOX IMVI)?
The GI50 was 11.9 µM (inactive).

And the GI50 (MDA-N)?
The GI50 was > 10 µM (inactive).

What about the GI50 (Hs-578T) of the same compound?
The GI50 was 58.2 µM (inactive).

What about the GI50 (HCT-116) of the same compound?
The GI50 was 15.2 µM (inactive).

What about the GI50 (MOLT-4) of the same compound?
The GI50 was 12.7 µM (inactive).

What about the GI50 (RXF 393) of the same compound?
The GI50 was 26.7 µM (inactive).

What about the GI50 (COLO 205) of the same compound?
Its GI50 is 14.4 µM (inactive).

What about the GI50 (SF-295) of the same compound?
The GI50 was 29.2 µM (inactive).

What about the GI50 (SK-MEL-5) of the same compound?
The GI50 was 42.9 µM (inactive).

What about the GI50 (786-0) of the same compound?
The GI50 was 19.6 µM (inactive).

What about the GI50 (K562) of the same compound?
Its GI50 is 25.3 µM (inactive).

What about the GI50 (SF-539) of the same compound?
The GI50 was 24.4 µM (inactive).

What about the GI50 (UO-31) of the same compound?
Its GI50 is 71.8 µM (inactive).

And the GI50 (DU-145)?
The GI50 was 38.5 µM (inactive).

What about the GI50 (MDA-MB-231) of the same compound?
The GI50 was 20.3 µM (inactive).

What about the GI50 (UACC-257) of the same compound?
Its GI50 is 24.8 µM (inactive).

And the GI50 (HCT-15)?
Its GI50 is 29.6 µM.

And the GI50 (U-251)?
Its GI50 is 15.6 µM (inactive).

With C[C@@H]1S[C@H](c2c(F)cccc2Cl)n2c1nc1ccccc12 as the compound, how does the GI50 (A549) read?
The GI50 was 17.1 µM (inactive).

What about the GI50 (OVCAR-5) of the same compound?
Its GI50 is 33.4 µM (inactive).

And the GI50 (TK-10)?
The GI50 was 28.5 µM (inactive).

What about the GI50 (SNB-19) of the same compound?
Its GI50 is 26.4 µM (inactive).

What about the GI50 (MDA-MB-435) of the same compound?
Its GI50 is 12.6 µM (inactive).

What about the GI50 (EKVX) of the same compound?
Its GI50 is 22.1 µM (inactive).

What about the GI50 (ACHN) of the same compound?
Its GI50 is 27.9 µM (inactive).

What about the GI50 (OVCAR-3) of the same compound?
The GI50 was 14.9 µM (inactive).

And the GI50 (BT-549)?
Its GI50 is 11.6 µM (inactive).

And the GI50 (SN12C)?
The GI50 was 15.6 µM (inactive).

And the GI50 (KM12)?
The GI50 was 5.53 µM (inactive).

What about the GI50 (SK-MEL-28) of the same compound?
Its GI50 is 13.7 µM (inactive).

And the GI50 (SF-268)?
The GI50 was 15.1 µM (inactive).

What about the GI50 (SNB-75) of the same compound?
Its GI50 is 16.5 µM (inactive).

What about the GI50 (UACC-62) of the same compound?
The GI50 was 8.81 µM (inactive).

What about the GI50 (T47D) of the same compound?
Its GI50 is 22.5 µM (inactive).

What about the GI50 (RPMI-8226) of the same compound?
Its GI50 is 4.44 µM (inactive).

And the GI50 (OVCAR-4)?
Its GI50 is 18.5 µM (inactive).

What about the GI50 (HOP-92) of the same compound?
Its GI50 is > 10 µM (inactive).

What about the GI50 (NCI-H226) of the same compound?
The GI50 was 19.9 µM (inactive).

And the GI50 (HCC 2998)?
The GI50 was 13.6 µM (inactive).

And the GI50 (IGROV-1)?
The GI50 was 17.2 µM (inactive).

What about the GI50 (Malme-3M) of the same compound?
Its GI50 is 14.8 µM (inactive).

And the GI50 (HT-29)?
Its GI50 is 14.7 µM (inactive).

And the GI50 (HOP-62)?
The GI50 was 15.3 µM (inactive).

What about the GI50 (CCRF-CEM) of the same compound?
Its GI50 is 10.6 µM (inactive).

And the GI50 (SW-620)?
Its GI50 is 13.7 µM (inactive).

What about the GI50 (NCI/ADR-RES) of the same compound?
Its GI50 is 14.1 µM (inactive).

And the GI50 (CAKI-1)?
Its GI50 is 8.43 µM (inactive).

And the GI50 (SR)?
The GI50 was 7.23 µM (inactive).

What about the GI50 (PC-3) of the same compound?
Its GI50 is 6.84 µM (inactive).

And the GI50 (MCF7)?
Its GI50 is 25.2 µM (inactive).

And the GI50 (OVCAR-8)?
The GI50 was 19 µM (inactive).

What about the GI50 (NCI-H23) of the same compound?
The GI50 was 14.5 µM (inactive).

And the GI50 (SK-MEL-2)?
Its GI50 is 15.7 µM (inactive).

And the GI50 (M14)?
Its GI50 is 15.2 µM (inactive).

What about the GI50 (SK-OV-3) of the same compound?
Its GI50 is 28.4 µM (inactive).

And the GI50 (LOX IMVI)?
The GI50 was 12.5 µM (inactive).

And the GI50 (MDA-N)?
The GI50 was 7.62 µM (inactive).

What about the GI50 (Hs-578T) of the same compound?
Its GI50 is 20.6 µM (inactive).

And the GI50 (HCT-116)?
Its GI50 is 4.49 µM (inactive).

What about the GI50 (MOLT-4) of the same compound?
Its GI50 is 5.04 µM (inactive).

What about the GI50 (RXF 393) of the same compound?
Its GI50 is 14.5 µM (inactive).

And the GI50 (COLO 205)?
Its GI50 is 11.2 µM (inactive).

What about the GI50 (SF-295) of the same compound?
Its GI50 is 18.5 µM (inactive).

What about the GI50 (786-0) of the same compound?
The GI50 was 14.8 µM (inactive).

And the GI50 (K562)?
The GI50 was 4.4 µM (inactive).

What about the GI50 (SF-539) of the same compound?
The GI50 was 15 µM (inactive).

What about the GI50 (UO-31) of the same compound?
The GI50 was 11.9 µM (inactive).

What about the GI50 (DU-145) of the same compound?
The GI50 was 27.2 µM (inactive).

And the GI50 (MDA-MB-231)?
The GI50 was 11.5 µM (inactive).

And the GI50 (UACC-257)?
The GI50 was 14.1 µM (inactive).

And the GI50 (HCT-15)?
The GI50 was 6.76 µM.

And the GI50 (U-251)?
The GI50 was 10.8 µM (inactive).
